Reference: patent publication US20250034216A1, “STEREOSELECTIVE COVALENT LIGANDS FOR ONCOGENIC AND IMMUNOLOGICAL PROTEINS” (The Scripps Research Institute, priority 2021, published 2025)

Target: T1, ATP9A_C31 (Homo sapiens, UniProt O75110)
T1 construct: endogenous in cells; host or cells: 22Rv1
T1 sequence (O75110 1-1047): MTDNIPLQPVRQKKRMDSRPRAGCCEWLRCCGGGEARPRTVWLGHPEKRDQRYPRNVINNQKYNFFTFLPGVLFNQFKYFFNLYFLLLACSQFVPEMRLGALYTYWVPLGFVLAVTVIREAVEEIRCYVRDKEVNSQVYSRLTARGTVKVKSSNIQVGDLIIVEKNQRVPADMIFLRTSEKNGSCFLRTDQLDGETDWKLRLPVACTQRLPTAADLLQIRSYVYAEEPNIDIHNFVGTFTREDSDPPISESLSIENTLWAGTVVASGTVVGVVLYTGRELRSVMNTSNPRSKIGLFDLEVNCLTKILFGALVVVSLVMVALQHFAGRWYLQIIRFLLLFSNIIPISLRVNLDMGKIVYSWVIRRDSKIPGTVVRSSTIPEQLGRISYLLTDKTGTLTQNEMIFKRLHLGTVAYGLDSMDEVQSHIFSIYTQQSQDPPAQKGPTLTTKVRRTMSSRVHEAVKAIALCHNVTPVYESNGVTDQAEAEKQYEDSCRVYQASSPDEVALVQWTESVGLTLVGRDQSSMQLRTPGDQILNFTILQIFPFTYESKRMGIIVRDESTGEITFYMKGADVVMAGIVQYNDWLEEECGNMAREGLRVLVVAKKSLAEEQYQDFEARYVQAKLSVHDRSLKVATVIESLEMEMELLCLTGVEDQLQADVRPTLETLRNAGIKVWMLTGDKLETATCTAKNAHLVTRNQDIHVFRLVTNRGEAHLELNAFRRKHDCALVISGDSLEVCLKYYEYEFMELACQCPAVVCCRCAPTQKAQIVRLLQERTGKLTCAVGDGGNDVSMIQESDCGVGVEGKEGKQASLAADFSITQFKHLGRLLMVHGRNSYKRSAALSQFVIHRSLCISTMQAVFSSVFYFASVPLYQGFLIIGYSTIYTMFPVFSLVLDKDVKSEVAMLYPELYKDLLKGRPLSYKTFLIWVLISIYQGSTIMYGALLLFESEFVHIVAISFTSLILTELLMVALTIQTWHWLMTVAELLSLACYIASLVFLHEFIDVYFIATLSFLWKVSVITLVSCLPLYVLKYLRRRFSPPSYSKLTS
Experiment: IA-DTB cysteine engagement
Assay type: binding
Conditions: 22Rv1 cells, 20 μM probe, 1 h, relative to DMSO
Method in brief: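 In-situ probe treatment of cells; lysate 2 mg/mL, IA-DTB 1 h RT; MeOH/CHCl3 precipitation, DTT/iodoacetamide, trypsin; streptavidin enrichment; TMT labeling, high-pH fractionation. Ratio = TMT reporter intensity / mean DMSO channels, median-normalized.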

% engagement ATP9A_C31 | SMILES
84.5% | C=CC(=O)N1C[C@@H](c2ccc(Br)cc2)[C@H]1C(=O)Nc1cccc2cccnc12 [MY-1A, (2S,3R)-1-acryloyl-3-(4-bromophenyl)-N-(quinolin-8-yl)azetidine-2-carboxamide]
79.5% | C=CC(=O)N1C[C@H](c2ccc(Br)cc2)[C@@H]1C(=O)Nc1cccc2cccnc12 [MY-1B, (2R,3S)-1-acryloyl-3-(4-bromophenyl)-N-(quinolin-8-yl)azetidine-2-carboxamide]
86.5% | C=CC(=O)N1C[C@H](c2ccc(Br)cc2)[C@H]1C(=O)Nc1cccc2cccnc12 [MY-3B, (2S,3S)-1-acryloyl-3-(4-bromophenyl)-N-(quinolin-8-yl)azetidine-2-carboxamide]
73% | C=CC(=O)N1C[C@H](c2ccc(Br)cc2)[C@H]1C(=O)Nc1cccc2cccnc12 [MY-3A, (2S,3S)-1-acryloyl-3-(4-bromophenyl)-N-(quinolin-8-yl)azetidine-2-carboxamide]
